Measurements from patent publication US20260184700A1, “PDK1 REGULATORY COMPOUND AND COMPOSITION CONTAINING THE SAME” (PROVIBIO CO., LTD., priority 2024, published 2026).

Key:
[1] = test system: T cells isolated from mouse spleen; assay: T cell proliferation inhibition, CFSE flow cytometry, CD3/CD28 activation; format: cell-based; conditions: CD3/CD28 activated, 3 days
Experimental: To verify the T cell proliferation inhibitory effect of the compounds according to the present invention, the following experiment was performed based on flow cytometry analysis using carboxyfluorescein diacetate succinimidyl ester (CFSE), a fluorescent dye that binds to intracellular molecules via covalent bonds.
Spleens were extracted from 7-week-old C57BL/6 mice, ground, and then separated into single cells using a strainer (40 μm pore size, SPL). Red blood cells were removed using ACK (Ammonium-Chloride-Potassium) lysis buffer to isolate white blood cells.
Finally, using a MACS Magnetic Stand and LS column, T cells were isolated from the spleen.
The T cells isolated from the spleen were resuspended in 1 mL of free medium (RPMI-1640+200 U/mL penicillin+200 μg/mL streptomycin), and 0.3 μL of CFSE (10 mM) was added. The mixture was incubated at 37° C. for 5 minutes.
Free medium (10 mL) was added to stop the reaction, and the cells were centrifuged to obtain the cell pellet.
RPMI 1640 medium containing 10% FBS, 100 U/mL penicillin, 100 μg/mL streptomycin, and resuspended the cells. The cells were then seeded into a 96-well plate at a density of 2×10^5 cells per well and activated with CD3 and CD28 antibodies (0.5 μg/mL each) to activate T cells.
The compound diluted in DMSO was added at concentrations of 10 nM, 100 nM, 1 μM, 10 μM, 30 μM, and 50 μM, with three wells per concentration, and cultured at 37° C. and 5% CO2 for three days. The cells were then analyzed using a FACS Canto instrument.
The proliferation inhibition rate (%) was calculated using the following formula: […]

[2] = test system: HCT-116 colon cancer cell lines; assay: Invasion Assay using Matrigel, HCT-116; format: cell-based, human; conditions: HCT-116, Matrigel invasion, 24 hours treatment
Experimental: To evaluate the metastasis inhibitory efficacy of the compounds of the present invention on HCT-116 colon cancer cell lines, an Invasion Assay using Matrigel was performed to assess the cells' invasion ability.
First, Matrigel was thawed on ice in RPMI-1640 medium without FBS, then diluted with DMEM at a ratio of 1:20.
The diluted Matrigel mixture was applied to the upper chamber at 100 μl per well, and 750 μl of RPMI-1640 without FBS was added to the lower chamber.
The plates were then incubated at 37° C. for 1 hour to allow the Matrigel to solidify.
After coating, the Matrigel mixture in the upper chamber was removed using a pipette, and the chamber was washed with RPMI without FBS.
Human-derived colorectal cancer cell line HCT-116, obtained from the Korean Cell Bank, was cultured in RPMI-1640 medium containing 10% FBS.
Following stabilization, the cells were harvested using Trypsin-EDTA treatment, centrifuged at 1,200 rpm for 3 minutes, the supernatant was removed, and the cells were resuspended in the same medium, the medium in the lower chamber was replaced with 750 μl of RPMI-1640 supplemented with 10% FBS, and the cells were seeded into the upper chamber at a density of 5×10^4 cells/well.
The cells were cultured for 24 hours after attachment, and then the compounds according to the present invention (G078, G085, G086, G088, G089, PBK-2024-010, PBK-2025-010, PBK-2025-013, PBK-2025-016) and the control substance DMSO were diluted and added to the upper chamber after removing the medium.
Additionally, the medium in the lower chamber was replaced with fresh RPMI-1640 containing FBS, and the culture was continued.
After an additional 24 hours, the medium was removed, and 1 ml of methanol was added for 10 minutes to fix the cells.
Subsequently, 1 ml of Hematoxylin was added and reacted for 5 minutes, followed by 1 ml of Eosin, which was reacted for 30 seconds. The sample was then washed with distilled water (DW).
After staining was complete, any remaining cells in the upper chamber were removed. Finally, the infiltrated cells were observed under a microscope, photographed, and the degree of infiltration was analyzed.

[3] = test system: phospho-PDK1 in SU-DHL-8 cells; assay: PDK1 phosphorylation (pPDK1) by flow cytometry in SU-DHL-8 cells; format: cell-based, human; conditions: SU-DHL-8, 24 hours, pPDK1-PE flow cytometry, vs control group
Experimental: SU-DHL-8 cells were cultured in RPMI-1640 medium (containing 10% FBS, 100 U/mL penicillin, and 100 μg/mL streptomycin), and the cell concentration was adjusted to 1×10^6 cells/mL and seeded into a 12-well plate. After stabilizing the cells, the compound of the present invention was added, and the cells were cultured for 24 hours.
After drug treatment, the cells were harvested, and the Fc receptor blocking process was performed. The cells were then fixed and permeabilized using the Intracellular Staining Kit (Cat. No. BD554715) from BD Biosciences. Subsequently, the intracellular pPDK1 was stained using the pPDK1-PE fluorescently labeled antibody (BD Biosciences).
Referring to the figure, the vertical axis represents the phosphorylation level of PDK1 (phospho-PDK1 expression level), and the horizontal axis denotes the concentration-dependent treatment conditions of each compound.

MRL/lpr mice = assay: Lupus animal model (MRL/lpr mice); format: in vivo, mouse; conditions: 41-week-old female MRL/lpr mice; GO15F (30 mg/kg), GO48 (1 mg/kg), GO88 (0.5 mg/kg) intraperitoneally once daily
Excerpt: The MRL/MpJ-Faslpr/J (Hereinafter Referred to as “MRL/lpr”) used in this experiment is one of the representative animal models for systemic lupus erythematosus (SLE), known to produce various autoantibodies, including antinuclear antibodies, due to the lpr (lymphoproliferation) gene.
In this invention, the period up to 9 weeks of age was considered the pre-disease stage, and the period after 23 weeks of age was considered the post-disease stage, and efficacy verification experiments using this model were conducted.
MRL/lpr mice were imported from The Jackson Laboratory and acclimatized for one week in an SPF (Specific Pathogen Free) facility maintained at a temperature of 21-24° C., humidity of 40-60%, and a 12-hour light-dark cycle (lights on at 7:00 AM, lights off at 7:00 PM). […]
The serum separated at the time of necropsy of the lupus animal model was analyzed using the ‘IgG (Total) Mouse Uncoated ELISA Kit (Invitrogen, Cat. #88-50400)’ to measure the concentration of total IgG.
Capture antibody (anti-mouse IgG) diluted 1/250 in coating buffer was added to each well of a 96-well plate (Nunc™ MaxiSorp™ ELISA Plates, Uncoated, BioLegend, Cat. #423501) at 100 μl per well, and the plate was incubated at 4° C. for 16 hours.
To investigate the effect of GO15F administration on changes in the ratio of immune cells in the spleen of a lupus animal model, the spleens of mice administered each compound were excised, cells were extracted, and the cells were suspended in MACS buffer (autoMACS Washing Solution, Miltenyi Biotec., Cat. #130-092-987).
For flow cytometry analysis, FACS tubes (5 mL round tubes, Falcon, Cat. #352052) were used. To prevent non-specific binding of antibodies, 1 μg/mL of anti-mouse CD16/CD32 (InVivoPlus anti-mouse CD16/CD32, BioXCell, Cat. #BP0307) for 30 minutes to prevent non-specific binding of the antibody, then centrifuge at 1,500 rpm for 5 minutes and resuspend in 100 μL of MACS buffer.
For B cells, each FACS tube was stained with 1 μg/mL of FITC-conjugated anti-B220 antibody (eBioscience™, Cat. #11-0452-81) at 4° C. for 30 minutes, then washed with 2 mL of MACS buffer.
For T cells, each FACS tube was stained with 1 μg/mL PerCP-Cy5.5-conjugated anti-CD3 (Biolegend, Cat. #100218) at 4° C. for 30 minutes.
For macrophages, each FACS tube was stained with 1 μg/mL of PE-conjugated anti-CD11b antibody (Biolegend, Cat. #101207) and PerCP-Cy5.5-conjugated anti-F4/80 (Biolegend, Cat. #123128) and incubated at 4° C. for 30 minutes. The tubes were then washed with 2 mL of MACS buffer.
To investigate the effects of compound GO15F according to the present invention on systemic immune responses in a lupus animal model, gene expression analysis of cytokines in kidney tissue was performed as described in (1).
Each kidney tissue was used to isolate total RNA using TRIzol™ (Invitrozen, Cat. #15596018). RNA from each mouse was quantified at 1 μg using a micro-quantitative spectrophotometer (ThermoFisher Scientific, ND2000) and cDNA was synthesized.
The synthesized cDNA from each mouse was quantified to a concentration of 50 ng using a micro-quantitative spectrophotometer, and qPCR was performed for the cytokines ‘IL-2, IL-6, IL-10, IL-17, TNF-α, IFN-γ’ using a SYBR green probe (CFX96, BIO-RAD).
To investigate the effects of drug administration on renal tissue in MRL/lpr mice, the tissue was fixed in 10% neutral buffered formalin at room temperature, followed by stepwise ethanol penetration for dehydration. The tissue was then embedded in xylene and paraffin.
The blocked tissues were sectioned into 4 μm thick slices using a microtome, followed by deparaffinization, hydration, and staining.
Hematoxylin & Eosin staining, PAS staining, and Masson trichrome staining were performed for pathological evaluation of the tissues. […]

[4] = test system: psoriasis-induced BALB/c mice; assay: Psoriasis animal model (Aldara cream, Imiquimod); format: in vivo, mouse
Experimental: To verify the therapeutic effect of the compound according to the present invention on psoriasis, a psoriasis animal model was established as follows, and the compound according to the present invention was administered to evaluate the alleviation of skin lesions and changes in immune cell patterns.
For the establishment of the psoriasis animal model, BALB/c mice (7 weeks old, female, 20 g) were purchased from HanabioTech Co., Ltd. and acclimatized to the rearing environment for one week.
Subsequently, the hair on the mouse back was shaved using a hair removal device for the first time, and then completely shaved using a depilatory cream (Nicrin Cream (80% thioglycolic acid, Il Dong Pharmaceutical)) for the second time. The mice were then kept for 24 hours to confirm the absence of skin damage.
To verify the psoriasis prevention and therapeutic effects of the compounds according to the present invention, the following experimental groups were established:
[Normal control group (Normal, Not Treatment), psoriasis-induced control group (Psoriasis, Not Treatment), psoriasis-induced vehicle control group (Psoriasis, Vehicle), experimental group (GO85, GO86, GO88, GO89, PBK-2024-010, PBK-2024-026, PBK-2025-002, PBK-2025-004, PBK-2025-016, PBK-2025-017, PBK-2025-023)]. […]
Body weights of mice in each group were measured on days 1, 4, and 8 after the start of injection and psoriasis induction. […]
To evaluate the therapeutic effect in a psoriasis-induced mouse model, the PASI (Psoriasis Area and Severity Index) score was measured.
The PASI score is based on three criteria: erythema, scaling, and skin thickness, each scored from 0 (none) to 4 (severe). […]
Observations were conducted daily at the same time, and the same observer visually assessed each criterion and recorded the scores, with the results presented in FIG. 13. […]
All samples were measured in duplicate, and the absorbance was measured at 450 nm using a microplate reader.

Molecule	Proliferation inhibition rate (%) ([1]; compound 10 nM)	Proliferation inhibition rate (%) ([1]; compound 100 nM)	Proliferation inhibition rate (%) ([1]; compound 1 μM)	Proliferation inhibition rate (%) ([1]; compound 10 μM)	Proliferation inhibition rate (%) ([1]; compound 30 μM)	Proliferation inhibition rate (%) ([1]; compound 50 μM)	number of infiltrated cells [2]	PDK1 phosphorylation (phospho-PDK1 expression level) [3]	hair growth on the facial region (MRL/lpr mice)	efficacy in improving dermatological symptoms [4]
12-(4-hydroxypiperazin-1-yl)dodecyl-N-(6-aminopurazin-2-yl)carboxamide [Compound 10]	100.00	100.00	100.00	100.00	100.00	100.00	reduction in the number of infiltrated cells			
Nc1ncccc1C(=O)NCCCCCCCCCCCCN1CCOCC1 [Compound 2, 2-Amino-N-(12-morpholin-4-yl-dodecyl)-nicotinamide]								stronger PDK1 inhibition	hair growth was confirmed	
Nc1nc(NC(=O)CCCCCCCCCCCCN2CCN(CCO)CC2)nc2nc[nH]c12 [Compound 15, 12-[4-(2-hydroxyethyl)piperazin-1-yl]dodecyl-N-(6-aminopurine-2-yl)carboxamide]							reduction in the number of infiltrated cells			excellent efficacy in improving dermatological symptoms
